Test results taken from PubChem BioAssay (NCI).
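96-well plates; 48 h exposure; 5 concentrations. Endpoints by linear interpolation between flanking doses. Not reached: highest tested concentration assigned. TGI: total growth inhibition.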

How the values were obtained:
Assay in all cases: NCI anticancer screen, dose series, 48 h
[1] = system: KM20L2 colon
[2] = system: DMS 273 small cell lung
[3] = system: NCI-H23 lung
[4] = system: SNB-75 CNS
[5] = system: OVCAR-3 ovarian
[6] = system: LXFL 529 NSCLC
[7] = system: 786-0 renal
[8] = system: SR leukemia
[9] = system: HCT-116 colon
[10] = system: LOX IMVI melanoma
[11] = system: OVCAR-8 ovarian
[12] = system: HOP-62 NSCLC
[13] = system: A549 NSCLC
[14] = system: UO-31 renal
[15] = system: U251 CNS
[16] = system: NCI-H522 lung
[17] = system: HL-60(TB) leukemia
[18] = system: SK-MEL-28 melanoma
[19] = system: OVCAR-4 ovarian
[20] = system: HT29 colon
[21] = system: MALME-3M melanoma
[22] = system: SK-MEL-2 melanoma
[23] = system: XF 498 CNS
[24] = system: DMS 114 small cell lung
[25] = system: KM12 colon
[26] = system: M14 melanoma
[27] = system: M19-MEL melanoma
[28] = system: SNB-19 CNS
[29] = system: SF-295 CNS
[30] = system: COLO 205 colon
[31] = system: UACC-257 melanoma
[32] = system: SW-620 colon
[33] = system: HOP-92 NSCLC
[34] = system: OVCAR-5 ovarian
[35] = system: SNB-78 CNS
[36] = system: NCI-H460 lung
[37] = system: SF-539 CNS
[38] = system: NCI-H226 lung
[39] = system: SN12C renal
[40] = system: HCC-2998 colon
[41] = system: RXF 393 renal
[42] = system: TK-10 renal
[43] = system: CAKI-1 renal
[44] = system: HOP-18 NSCLC
[45] = system: DLD-1 colon
[46] = system: IGROV1 ovarian
[47] = system: CCRF-CEM leukemia
[48] = system: K-562 leukemia
[49] = system: SK-MEL-5 melanoma
[50] = system: SF-268 CNS
[51] = system: EKVX NSCLC
[52] = system: SK-OV-3 ovarian
[53] = system: UACC-62 melanoma
[54] = system: A498 renal
[55] = system: RPMI-8226 leukemia
[56] = system: MOLT-4 leukemia
[57] = system: HCT-15 colon
[58] = system: ACHN renal

Measured: TGI

CN(C)C(=N)c1ccccc1
not listed: [44] | [45] | [46] | [47] | [48] | [49] | [50] | [51] | [52] | [53] | [54] | [55] | [56] | [57] | [58]
> 100 µM: all other assays above

CC1C=C(CCCCCCCCCCCC[C@@H](O)[C@@H]2CC[C@@H]([C@@H]3CC[C@@H](C(O)CCCCCCCCCCCCC4=C[C@H](C)OC4=O)O3)O2)C(=O)O1 (some centres undefined)
39.6 µM: [16]
52.6 µM: [37]
> 55 µM: [8]
> 84.5 µM: [55]
27.4 µM: [49]
not listed: [19] | [35]
> 100 µM: all other assays above

N#CC1C(C#N)C2(c3ccccc3)C(c3ccccc3)=NN(c3ccccc3)CC12 (centres undefined)
not listed: [3] | [12] | [16] | [20] | [30] | [33] | [50] | [52]
> 100 µM: all other assays above

O=C1/C(=C/c2ccccc2)CN(C(=O)C(Cl)(Cl)Cl)C/C1=C\c1ccccc1
4.67 µM: [1]
3.19 µM: [24]
2.38 µM: [2]
12.3 µM: [4]
6.01 µM: [21]
3.4 µM: [25]
2.36 µM: [49]
1.36 µM: [9]
9.6 µM: [44]
10.3 µM: [22]
3.1 µM: [11]
4.02 µM: [41]
3.26 µM: [48]
0.524 µM: [17]
4.62 µM: [58]
4.28 µM: [45]
32.4 µM: [13]
3.58 µM: [57]
9.91 µM: [37]
2.75 µM: [20]
8.72 µM: [42]
3.12 µM: [39]
2.92 µM: [31]
7.03 µM: [14]
7.1 µM: [8]
6.42 µM: [34]
7.88 µM: [5]
3.43 µM: [53]
7.54 µM: [35]
2.68 µM: [27]
3.42 µM: [19]
3 µM: [15]
4.69 µM: [30]
3.33 µM: [18]
9.42 µM: [7]
2.18 µM: [10]
0.314 µM: [55]
1.82 µM: [32]
4.17 µM: [36]
10.7 µM: [28]
3.24 µM: [29]
13.7 µM: [54]
3.38 µM: [6]
4.08 µM: [16]
5.32 µM: [46]
2.62 µM: [26]
5.77 µM: [56]
3.86 µM: [47]
13.4 µM: [50]
6.8 µM: [3]
